Laboratory results published in ChEMBL document CHEMBL2177056, “Bis(arylvinyl)pyrazines, -pyrimidines, and -pyridazines as imaging agents for tau fibrils and β-amyloid plaques in Alzheimer's disease models” (J Med Chem, 2012).
Calls of active or inactive are those of the source. No cut-off for these calls is given here.

Tested on: not listed separately
Test: Lipophilicity, log P of the compound
Assay type: physicochemical
Details: octanol/water

SMILES	logP
COc1cc(/C=C/c2ccc(O)cc2)ccc1/C=C/c1ccc(O)cc1	2.6

Target: T1, Microtubule-associated protein tau (Homo sapiens, UniProt P10636)
T1 sequence (P10636 whole entry): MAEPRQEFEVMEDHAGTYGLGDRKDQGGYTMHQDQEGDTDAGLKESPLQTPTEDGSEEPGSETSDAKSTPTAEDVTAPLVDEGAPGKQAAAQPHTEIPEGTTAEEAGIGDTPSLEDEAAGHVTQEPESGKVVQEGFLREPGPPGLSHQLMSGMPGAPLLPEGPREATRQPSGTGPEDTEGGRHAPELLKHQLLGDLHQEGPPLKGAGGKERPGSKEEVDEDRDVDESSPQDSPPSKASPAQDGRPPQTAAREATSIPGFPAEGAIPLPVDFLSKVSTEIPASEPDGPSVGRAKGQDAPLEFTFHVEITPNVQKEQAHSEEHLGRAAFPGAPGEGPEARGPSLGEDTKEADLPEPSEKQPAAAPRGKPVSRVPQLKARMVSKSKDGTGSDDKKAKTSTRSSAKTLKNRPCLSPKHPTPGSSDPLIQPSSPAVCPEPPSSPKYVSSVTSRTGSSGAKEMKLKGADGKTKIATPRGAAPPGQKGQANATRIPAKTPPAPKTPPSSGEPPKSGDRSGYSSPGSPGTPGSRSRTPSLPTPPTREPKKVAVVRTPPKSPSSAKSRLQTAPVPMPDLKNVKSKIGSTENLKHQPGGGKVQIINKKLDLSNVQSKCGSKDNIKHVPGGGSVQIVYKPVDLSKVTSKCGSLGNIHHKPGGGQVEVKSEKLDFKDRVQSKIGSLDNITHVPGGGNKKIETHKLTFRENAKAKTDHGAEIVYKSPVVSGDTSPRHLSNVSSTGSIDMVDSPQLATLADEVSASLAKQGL
Test: Binding affinity to tau aggregate in Alzheimer patient bowmans gland of olfactory epithelium
Details: not given

SMILES	Activity
CN(C)c1ccc(/C=C/c2cc(/C=C/c3ccc(N(C)C)cc3)ncn2)cc1	Active

Tested on: HepG2
Test: Cytotoxicity against human HepG2 cells
Assay type: cell-based
Details: not given

SMILES	Activity
CN(C)c1ccc(/C=C/c2cc(/C=C/c3ccc(N(C)C)cc3)ncn2)cc1	Non-toxic
C(=C\c1cc(/C=C/c2ccc(N3CCCC3)cc2)ncn1)/c1ccc(N2CCCC2)cc1	Non-toxic

Tested on: Mus musculus
Test: Binding affinity to amyloid beta plaque in transgenic mouse brain overexpressing APP Swedish mutant/PS1deltaE9 at 2 mg/kg, ip after 4 hrs by fluorescence microscopic analysis
Assay type: functional, organism-based
Design: dose 2 mg/kg
Details: not given

SMILES	Activity
CN(C)c1ccc(/C=C/c2cc(/C=C/c3ccc(N(C)C)cc3)ncn2)cc1	Active
C(=C\c1cc(/C=C/c2ccc(N3CCCC3)cc2)ncn1)/c1ccc(N2CCCC2)cc1	inactive
CN(C)c1ccc(/C=C/c2cnc(/C=C/c3ccc(N(C)C)cc3)cn2)cc1	Active

Tested on: not listed separately
Test: Selectivity ratio of IC50 for tau aggregate to IC50 for amyloid beta (1 to 40) aggregate
Details: not given

SMILES	Ratio IC50
CN(C)c1ccc(/C=C/c2cc(/C=C/c3ccc(N(C)C)cc3)ncn2)cc1	13.5

Tested on: not listed separately
Test: Selectivity ratio of IC50 for amyloid beta (1 to 40) aggregate to IC50 for tau aggregate
Details: not given

SMILES	Ratio IC50
COc1cc(/C=C/c2ccc(O)cc2)ccc1/C=C/c1ccc(O)cc1	1.8

Target: T1, Microtubule-associated protein tau
Test: Displacement of thiazene red from tau aggregate
Details: not given

SMILES	IC50
CC(C)c1ccc(/C=C/c2cnc(/C=C/c3ccc(C(C)C)cc3)cn2)cc1	Not Active
C(=C\c1cc(/C=C/c2ccc(N3CCOCC3)cc2)ncn1)/c1ccc(N2CCOCC2)cc1	Not Active
CN(C)c1ccc(/C=C/c2cc(-c3ccccc3)c(/C=C/c3ccc(N(C)C)cc3)nn2)cc1	Not Active
Cn1cccc1/C=C/c1cc(-c2ccccc2)c(/C=C/c2cccn2C)nn1	Not Active

Same assay, conditions: read-out: IC50

SMILES	IC50 [µM]
CN1CCN(c2ccc(/C=C/c3cc(/C=C/c4ccc(N5CCN(C)CC5)cc4)ncn3)cc2)CC1	7.47
C(=C\c1cnc(/C=C/c2ccc(N3CCOCC3)cc2)cn1)/c1ccc(N2CCOCC2)cc1	0.006
COc1cc(/C=C/c2ccc(O)cc2)ccc1/C=C/c1ccc(O)cc1	0.246
COc1ccc(-c2cc(/C=C/c3ccc(N(C)C)cc3)nnc2/C=C/c2ccc(N(C)C)cc2)cc1	1.59
C(=C\c1cc(/C=C/c2ccc(N3CCCCC3)cc2)ncn1)/c1ccc(N2CCCCC2)cc1	0.017
CN(C)c1ccc(/C=C/c2cc(/C=C/c3ccc(N(C)C)cc3)ncn2)cc1	0.004
CN(C)c1ccc(/C=C/c2cc(-c3ccccc3F)c(/C=C/c3ccc(N(C)C)cc3)nn2)cc1	1.25
CN1CCN(c2ccc(/C=C/c3cnc(/C=C/c4ccc(N5CCN(C)CC5)cc4)cn3)cc2)CC1	0.042
CN(C)c1ccc(/C=C/C=C/c2cc(/C=C/C=C/c3ccc(N(C)C)cc3)ncn2)cc1	0.002
C(=C\c1cc(/C=C/c2ccc(N3CCCC3)cc2)ncn1)/c1ccc(N2CCCC2)cc1	0.002
COc1ccc(/C=C/c2cnc(/C=C/c3ccc(OC)cc3)cn2)cc1	0.013
C(=C\c1cc(-c2ccccc2)c(/C=C/c2ccc(N3CCOCC3)cc2)nn1)/c1ccc(N2CCOCC2)cc1	4.71

Tested on: not listed separately
Test: Displacement of thiazene red from amyloid beta (1 to 40) aggregate
Details: not given

SMILES	IC50
CC(C)c1ccc(/C=C/c2cnc(/C=C/c3ccc(C(C)C)cc3)cn2)cc1	Not Active
C(=C\c1cc(/C=C/c2ccc(N3CCOCC3)cc2)ncn1)/c1ccc(N2CCOCC2)cc1	Not Active
CN(C)c1ccc(/C=C/c2cc(-c3ccccc3)c(/C=C/c3ccc(N(C)C)cc3)nn2)cc1	Not Active
Cn1cccc1/C=C/c1cc(-c2ccccc2)c(/C=C/c2cccn2C)nn1	Not Active

Same assay, conditions: read-out: IC50

SMILES	IC50 [µM]
CN1CCN(c2ccc(/C=C/c3cc(/C=C/c4ccc(N5CCN(C)CC5)cc4)ncn3)cc2)CC1	2.38
C(=C\c1cnc(/C=C/c2ccc(N3CCOCC3)cc2)cn1)/c1ccc(N2CCOCC2)cc1	0.043
COc1cc(/C=C/c2ccc(O)cc2)ccc1/C=C/c1ccc(O)cc1	0.14
COc1ccc(-c2cc(/C=C/c3ccc(N(C)C)cc3)nnc2/C=C/c2ccc(N(C)C)cc2)cc1	4.57
C(=C\c1cc(/C=C/c2ccc(N3CCCCC3)cc2)ncn1)/c1ccc(N2CCCCC2)cc1	0.156
CN(C)c1ccc(/C=C/c2cc(/C=C/c3ccc(N(C)C)cc3)ncn2)cc1	0.054
CN(C)c1ccc(/C=C/c2cc(-c3ccccc3F)c(/C=C/c3ccc(N(C)C)cc3)nn2)cc1	10.1
CN1CCN(c2ccc(/C=C/c3cnc(/C=C/c4ccc(N5CCN(C)CC5)cc4)cn3)cc2)CC1	0.051
CN(C)c1ccc(/C=C/C=C/c2cc(/C=C/C=C/c3ccc(N(C)C)cc3)ncn2)cc1	0.003
C(=C\c1cc(/C=C/c2ccc(N3CCCC3)cc2)ncn1)/c1ccc(N2CCCC2)cc1	0.052
COc1ccc(/C=C/c2cnc(/C=C/c3ccc(OC)cc3)cn2)cc1	0.017
C(=C\c1cc(-c2ccccc2)c(/C=C/c2ccc(N3CCOCC3)cc2)nn1)/c1ccc(N2CCOCC2)cc1	7.59

Target: not listed separately
Test: Displacement of methoxy-XO4 from amyloid beta (1 to 40) aggregate
Details: not given

SMILES	Ki [µM]
[11CH3]Oc1cc(/C=C/c2ccc(O)cc2)ccc1/C=C/c1ccc(O)cc1	0.0268

Target: Amyloid-beta precursor protein (Homo sapiens) (UniProt P05067)
Sequence (P05067 whole entry): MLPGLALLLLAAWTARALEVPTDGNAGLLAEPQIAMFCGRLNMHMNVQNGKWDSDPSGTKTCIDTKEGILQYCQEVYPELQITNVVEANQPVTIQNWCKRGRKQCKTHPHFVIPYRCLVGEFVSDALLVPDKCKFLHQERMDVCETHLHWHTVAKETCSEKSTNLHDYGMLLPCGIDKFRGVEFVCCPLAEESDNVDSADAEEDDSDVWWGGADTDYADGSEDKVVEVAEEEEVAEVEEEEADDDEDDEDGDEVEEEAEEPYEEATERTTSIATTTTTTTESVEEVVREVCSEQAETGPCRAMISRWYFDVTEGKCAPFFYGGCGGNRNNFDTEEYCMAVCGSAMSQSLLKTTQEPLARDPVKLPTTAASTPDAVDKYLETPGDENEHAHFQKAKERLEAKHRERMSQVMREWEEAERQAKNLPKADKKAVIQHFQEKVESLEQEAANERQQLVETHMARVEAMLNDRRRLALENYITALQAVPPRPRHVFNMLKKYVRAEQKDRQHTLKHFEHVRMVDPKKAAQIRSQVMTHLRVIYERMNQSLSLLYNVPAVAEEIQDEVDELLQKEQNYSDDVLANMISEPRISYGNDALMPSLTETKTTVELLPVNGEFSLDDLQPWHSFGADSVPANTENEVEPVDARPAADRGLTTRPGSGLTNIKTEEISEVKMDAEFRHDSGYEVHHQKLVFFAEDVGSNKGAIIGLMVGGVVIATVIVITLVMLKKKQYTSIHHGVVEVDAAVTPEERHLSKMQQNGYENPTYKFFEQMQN
Test: Binding affinity to intravascular amyloid beta angiopathies in Alzheimer patient brain by fluorescence microscopic analysis
Details: not given

SMILES	Activity
CN(C)c1ccc(/C=C/c2cnc(/C=C/c3ccc(N(C)C)cc3)cn2)cc1	Active

Target: Amyloid-beta precursor protein (Homo sapiens) (UniProt P05067)
Test: Binding affinity to extracellular amyloid beta plaques in Alzheimer patient brain by fluorescence microscopic analysis
Details: not given

SMILES	Activity
CN(C)c1ccc(/C=C/c2cnc(/C=C/c3ccc(N(C)C)cc3)cn2)cc1	Active

Target: T1, Microtubule-associated protein tau
Test: Binding affinity to extracellular tau plaques in Alzheimer patient brain by fluorescence microscopic analysis
Details: not given

SMILES	Activity
CC(C)c1ccc(/C=C/c2cnc(/C=C/c3ccc(C(C)C)cc3)cn2)cc1	Active
CN1CCN(c2ccc(/C=C/c3cc(/C=C/c4ccc(N5CCN(C)CC5)cc4)ncn3)cc2)CC1	Active
C(=C\c1cnc(/C=C/c2ccc(N3CCOCC3)cc2)cn1)/c1ccc(N2CCOCC2)cc1	Active
C(=C\c1cnc(/C=C/c2ccc(N3CCCC3)cc2)cn1)/c1ccc(N2CCCC2)cc1	Active
COc1ccc(-c2cc(/C=C/c3ccc(N(C)C)cc3)nnc2/C=C/c2ccc(N(C)C)cc2)cc1	Active
C(=C\c1cc(/C=C/c2ccc(N3CCCCC3)cc2)ncn1)/c1ccc(N2CCCCC2)cc1	Active
CN(C)c1ccc(/C=C/c2cc(/C=C/c3ccc(N(C)C)cc3)ncn2)cc1	Active
C(=C\c1cc(/C=C/c2ccc(N3CCOCC3)cc2)ncn1)/c1ccc(N2CCOCC2)cc1	Active
CN(C)c1ccc(/C=C/c2cc(-c3ccccc3F)c(/C=C/c3ccc(N(C)C)cc3)nn2)cc1	Active
CN1CCN(c2ccc(/C=C/c3cnc(/C=C/c4ccc(N5CCN(C)CC5)cc4)cn3)cc2)CC1	Active
CN(C)c1ccc(/C=C/C=C/c2cc(/C=C/C=C/c3ccc(N(C)C)cc3)ncn2)cc1	Active
Cn1cccc1/C=C/c1cnc(/C=C/c2cccn2C)cn1	Active
C(=C\c1cc(/C=C/c2ccc(N3CCCC3)cc2)ncn1)/c1ccc(N2CCCC2)cc1	Active
CN(C)c1ccc(/C=C/c2cc(-c3ccccc3)c(/C=C/c3ccc(N(C)C)cc3)nn2)cc1	Active
C(=C\c1cnc(/C=C/c2ccc(N3CCCCC3)cc2)cn1)/c1ccc(N2CCCCC2)cc1	Active
COc1ccc(/C=C/c2cnc(/C=C/c3ccc(OC)cc3)cn2)cc1	Active
C(=C\c1cc(-c2ccccc2)c(/C=C/c2ccc(N3CCOCC3)cc2)nn1)/c1ccc(N2CCOCC2)cc1	Active
Cn1cccc1/C=C/c1cc(-c2ccccc2)c(/C=C/c2cccn2C)nn1	Active
CN(C)c1ccc(/C=C/c2cnc(/C=C/c3ccc(N(C)C)cc3)cn2)cc1	Active

Target: T1, Microtubule-associated protein tau
Test: Binding affinity to intracellular fibrillar tau in Alzheimer patient brain by fluorescence microscopic analysis
Assay type: cell-based
Details: not given

SMILES	Activity
CC(C)c1ccc(/C=C/c2cnc(/C=C/c3ccc(C(C)C)cc3)cn2)cc1	Active
CN1CCN(c2ccc(/C=C/c3cc(/C=C/c4ccc(N5CCN(C)CC5)cc4)ncn3)cc2)CC1	Active
C(=C\c1cnc(/C=C/c2ccc(N3CCOCC3)cc2)cn1)/c1ccc(N2CCOCC2)cc1	Active
C(=C\c1cnc(/C=C/c2ccc(N3CCCC3)cc2)cn1)/c1ccc(N2CCCC2)cc1	Active
COc1ccc(-c2cc(/C=C/c3ccc(N(C)C)cc3)nnc2/C=C/c2ccc(N(C)C)cc2)cc1	Active
C(=C\c1cc(/C=C/c2ccc(N3CCCCC3)cc2)ncn1)/c1ccc(N2CCCCC2)cc1	Active
CN(C)c1ccc(/C=C/c2cc(/C=C/c3ccc(N(C)C)cc3)ncn2)cc1	Active
C(=C\c1cc(/C=C/c2ccc(N3CCOCC3)cc2)ncn1)/c1ccc(N2CCOCC2)cc1	Active
CN(C)c1ccc(/C=C/c2cc(-c3ccccc3F)c(/C=C/c3ccc(N(C)C)cc3)nn2)cc1	Active
CN1CCN(c2ccc(/C=C/c3cnc(/C=C/c4ccc(N5CCN(C)CC5)cc4)cn3)cc2)CC1	Active
CN(C)c1ccc(/C=C/C=C/c2cc(/C=C/C=C/c3ccc(N(C)C)cc3)ncn2)cc1	Active
Cn1cccc1/C=C/c1cnc(/C=C/c2cccn2C)cn1	Active
C(=C\c1cc(/C=C/c2ccc(N3CCCC3)cc2)ncn1)/c1ccc(N2CCCC2)cc1	Active
CN(C)c1ccc(/C=C/c2cc(-c3ccccc3)c(/C=C/c3ccc(N(C)C)cc3)nn2)cc1	Active
C(=C\c1cnc(/C=C/c2ccc(N3CCCCC3)cc2)cn1)/c1ccc(N2CCCCC2)cc1	Active
COc1ccc(/C=C/c2cnc(/C=C/c3ccc(OC)cc3)cn2)cc1	Active
C(=C\c1cc(-c2ccccc2)c(/C=C/c2ccc(N3CCOCC3)cc2)nn1)/c1ccc(N2CCOCC2)cc1	Active
Cn1cccc1/C=C/c1cc(-c2ccccc2)c(/C=C/c2cccn2C)nn1	Active
CN(C)c1ccc(/C=C/c2cnc(/C=C/c3ccc(N(C)C)cc3)cn2)cc1	Active
